ChEMBL document CHEMBL1255224, “Design and synthesis of prolylcarboxypeptidase (PrCP) inhibitors to validate PrCP as a potential target for obesity” (J Med Chem, 2010)

How the values were obtained:
[1] = biological target: T1, Lysosomal Pro-X carboxypeptidase (Mus musculus, UniProt Q7TMR0); experiment: Inhibition of mouse PrCP by FRET
T1 sequence (Q7TMR0 whole entry): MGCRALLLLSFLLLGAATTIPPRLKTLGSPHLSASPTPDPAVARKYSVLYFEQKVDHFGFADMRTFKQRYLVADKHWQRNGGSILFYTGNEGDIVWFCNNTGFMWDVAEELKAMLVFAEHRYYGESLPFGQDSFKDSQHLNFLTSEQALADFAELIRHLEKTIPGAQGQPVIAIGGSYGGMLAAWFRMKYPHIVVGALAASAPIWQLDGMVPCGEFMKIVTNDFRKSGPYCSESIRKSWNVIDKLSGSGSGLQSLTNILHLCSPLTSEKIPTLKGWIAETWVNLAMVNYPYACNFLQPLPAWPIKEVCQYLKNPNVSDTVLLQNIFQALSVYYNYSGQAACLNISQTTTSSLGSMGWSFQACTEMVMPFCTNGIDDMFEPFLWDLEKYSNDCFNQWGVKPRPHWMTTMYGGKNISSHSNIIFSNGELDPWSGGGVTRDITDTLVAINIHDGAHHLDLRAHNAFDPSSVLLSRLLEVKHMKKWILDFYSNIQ

[2] = Clearance in mouse; format: ADME, organism-based; conditions: in vivo
[3] = Volume of distribution in mouse; format: ADME, organism-based; conditions: in vivo
[4] = Half life in mouse; format: ADME, organism-based; conditions: in vivo
[5] = Oral bioavailability in mouse; format: ADME, organism-based; conditions: in vivo
[6] = biological target: T1, Lysosomal Pro-X carboxypeptidase; experiment: Inhibition of mouse PrCP by FRET in presence of 1% mouse serum albumin
[7] = system: Mus musculus; experiment: Antiobesity activity against C57BL/6NT mouse overexpressing PrCP assessed as reduction in body weight at 100 mg/kg, po; format: functional; set-up: scale not given: the % may be the effect or the level left
[8] = system: Mus musculus; experiment: Antiobesity activity against C57BL/6NT mouse PrCP knock out model assessed as reduction in body weight at 100 mg/kg, po for 5 days; format: functional; set-up: scale not given: the % may be the effect or the level left
[9] = system: Blood; experiment: Drug level in C57BL/6NT wild type mouse blood at 100 mg/kg, po; format: ADME, organism-based; set-up: dose 100 mg/kg, route oral; conditions: in vivo, read-out: Activity
[10] = system: Brain; experiment: Drug level in C57BL/6NT wild type mouse brain at 100 mg/kg, po; format: ADME, organism-based; set-up: dose 100 mg/kg, route oral; conditions: in vivo, read-out: Activity
[11] = system: Blood; experiment: Drug level in C57BL/6NT PrCP knock out mouse blood at 100 mg/kg, po; format: ADME, organism-based; set-up: dose 100 mg/kg, route oral; conditions: in vivo, read-out: Activity
[12] = system: Brain; experiment: Drug level in C57BL/6NT PrCP knock out mouse brain at 100 mg/kg, po; format: ADME, organism-based; set-up: dose 100 mg/kg, route oral; conditions: in vivo, read-out: Activity

Compound | IC50 [1] | clearance [2] | Vd [3] | half-life [4] | bioavailability [5] | IC50 [6] | concentration [9] | concentration [10] | concentration [11] | concentration [12] | Activity [7] | Activity [8]
CC(C)(Cc1ccc(-c2ccccc2)cc1)C(=O)N1CCC[C@H]1c1nc(-c2cccc(F)c2)c[nH]1 | – | 92 mL/min/kg | 8.8 L/kg | 2.3 h | 5% | – | – | – | – | – | – | –
Cc1cccc2[nH]c([C@@H]3[C@@H]4C[C@@H]4CN3C(=O)COc3ccc(-c4ccccc4)cc3)nc12 | – | 41 mL/min/kg | 2.3 L/kg | 0.6 h | 20% | – | – | – | – | – | – | –
CC(C)(O)C(=O)N[C@@H](Cc1ccc(-c2ccccc2)cc1)C(=O)N1CCC[C@H]1c1nc2cc(F)c(F)cc2[nH]1 | – | 39 mL/min/kg | 1.5 L/kg | 0.5 h | 9% | – | – | – | – | – | – | –
CC(C)(CN)C(=O)N[C@@H](Cc1ccc(-c2ccccc2)cc1)C(=O)N1CCC[C@H]1c1nc2cc(Cl)c(Cl)cc2[nH]1 | – | 23 mL/min/kg | 7.9 L/kg | 4.3 h | 0% | – | – | – | – | – | – | –
CC(C)(O)C(=O)N[C@@H](Cc1ccc(-c2ccccc2)cc1)C(=O)N1CCC[C@H]1c1ncc(C(C)(C)C)[nH]1 | 16 nM | 117 mL/min/kg | 2.9 L/kg | 0.4 h | 0% | 15 nM | – | – | – | – | – | –
C[C@@H](c1ccc(-c2ccc(F)cc2)cc1)[C@H](NC(=O)C(C)(C)O)C(=O)N1CCC[C@H]1c1nc2cc(Cl)c(Cl)cc2[nH]1 | – | 23 mL/min/kg | 1.2 L/kg | 0.8 h | 12% | – | – | – | – | – | – | –
C[C@@H](c1ccccc1)[C@H](NC(=O)C(C)(C)O)C(=O)N1CCC[C@H]1c1nc2cc(Cl)c(Cl)cc2[nH]1 | 29 nM | 72 mL/min/kg | 2.4 L/kg | 0.5 h | 4% | 98 nM | – | – | – | – | – | –
Cn1cc(-c2ccc(C[C@H](NC(=O)C(C)(C)N)C(=O)N3CCC[C@H]3c3nc4cc(Cl)c(Cl)cc4[nH]3)cc2)ccc1=O | – | 70 mL/min/kg | 14 L/kg | 2.6 h | 0% | – | – | – | – | – | – | –

More lines, main results first:

IC50 [1] | clearance [2] | Vd [3] | half-life [4] | bioavailability [5] | IC50 [6] | concentration [9] | concentration [10] | concentration [11] | concentration [12] | Compound | Activity [7] | Activity [8]
871 nM | 75 mL/min/kg | 4.6 L/kg | 0.8 h | 5% | – | – | – | – | – | O=C(CCc1ccc(-c2ccccc2)cc1)N1CCC[C@H]1c1ncc(-c2cccc(F)c2)[nH]1 | – | –
– | 54 mL/min/kg | 4 L/kg | 3.4 h | 49% | – | – | – | – | – | Cc1ccccc1-c1c[nH]c([C@@H]2CCCN2C(=O)COc2ccc(-c3ccccc3)cc2)n1 | – | –
– | 15 mL/min/kg | 4 L/kg | 9.6 h | 5% | – | – | – | – | – | CC(C)(Cc1ccc(-c2cccc(Cl)c2Cl)cc1)C(=O)N1CC(F)(F)C[C@H]1c1ncc(-c2cccc(Br)c2)[nH]1 | – | –
– | 82 mL/min/kg | 2.2 L/kg | 0.6 h | 1% | – | – | – | – | – | N#Cc1cccc(-c2ccc(CCC(=O)N3C[C@H](O)C[C@H]3c3nc(-c4cccc(Cl)c4)c[nH]3)cc2)c1 | – | –
15 nM | 12 mL/min/kg | 2.7 L/kg | 2.8 h | 31% | 789 nM | – | – | – | – | CC(C)(N)C(=O)N[C@@H](Cc1ccc(-c2ccccc2)cc1)C(=O)N1CCC[C@H]1c1nc2cc(Cl)c(Cl)cc2[nH]1 | – | –
– | 7 mL/min/kg | 2.6 L/kg | 3 h | 100% | – | – | – | – | – | CC(C)(N)C(=O)N[C@@H](Cc1ccc(Cl)cc1)C(=O)N1CCC[C@H]1c1nc2cc(Cl)c(Cl)cc2[nH]1 | – | –
251 nM | 25 mL/min/kg | 2.2 L/kg | 1.4 h | 33% | 3320 nM | – | – | – | – | COc1ccc(C[C@H](NC(=O)C(C)(C)N)C(=O)N2CC[C@H]2c2nc3cc(Cl)c(Cl)cc3[nH]2)cc1 | – | –
– | 14 mL/min/kg | 6.8 L/kg | 5.2 h | 0% | – | – | – | – | – | CC(C)(N)CC(=O)N[C@@H](Cc1ccc(-c2ccccc2)cc1)C(=O)N1CCC[C@H]1c1nc2cc(Cl)c(Cl)cc2[nH]1 | – | –
41 nM | 11 mL/min/kg | 11 L/kg | 15 h | 6% | 17 nM | – | – | – | – | CC(C)(N)C(=O)N[C@@H](Cc1ccc(-c2ccccc2)cc1)C(=O)N1CCC[C@H]1c1ncc(C(C)(C)C)[nH]1 | – | –
2 nM | 23 mL/min/kg | 4.4 L/kg | 2.3 h | 13% | 8 nM | 380 nM | 50 nM | 430 nM | 40 nM | C[C@@H](c1ccc(-c2ccccc2)cc1)[C@H](NC(=O)C(C)(C)N)C(=O)N1CCC[C@H]1c1nc2cc(Cl)c(Cl)cc2[nH]1 | 4.9% | 1.1%
32 nM | 17 mL/min/kg | 1.5 L/kg | 1.5 h | 41% | 60 nM | – | – | – | – | C[C@@H](c1ccccc1)[C@H](NC(=O)C(C)(C)N)C(=O)N1CCC[C@H]1c1nc2cc(Cl)c(Cl)cc2[nH]1 | – | –
